Experimental data published in PMC6471197, “Biological Activity and In Silico Study of 3-Modified Derivatives of Betulin and Betulinic Aldehyde” (International Journal of Molecular Sciences, 2019).
Read-outs that look alike come from different tables or passages of the source.

Experiments:
Du-145 (prostate) = assay: SRB antiproliferative assay on Du-145 cells; type: cell-based, human; settings: for IC50: SRB assay
Procedure: (§1) The applied human cell lines such as MV-4-11 (biphenotypic B myelomonocytic leukaemia), A549 (lung adenocarcinoma), Du-145 (prostate), Hs294T (melanoma), MCF-7 (breast adenocarcinoma) and MCF-10A (normal mammary gland) were obtained from the American Type Culture Collection (ATCC, Rockville, MD, USA). The all cell lines are maintained at the Cell Culture Collection of the Institute of Immunology and Experimental Therapy (Wrocław, Poland). The cells were plated in 96-well plates (Sarstedt, Newton, MA, USA) at a density of 1 × 10^4 cells per well in 100 µL of appropriate culture medium overnight. Biphenotypic B myelomonocytic leukaemia (MV-4-11) cells were cultured in RPMI 1640 medium (Gibco, Scotland, UK) with GlutaMAX (Thermo-Fisher Scientific, Warsaw, Poland) adjusted to contain 1.0 mM sodium pyruvate (Sigma-Aldrich, Chemie GmbH, Steinheim, Germany). Human lung adenocarcinoma (A549) cells were cultured in mixture RPMI 1640 and Opti-MEM medium (Gibco, Scotland, UK) supplemented with GlutaMAX (ThermoFisher Scientific, Warsaw, Poland) and 2mM L-glutamine adjusted to contain 1.0 mM sodium pyruvate. Human prostate (Du-145) and human breast adenocarcinoma (MCF-7) cells were cultured in Eagle medium (IIET, Wrocław, Poland), supplemented with 2 mM L-glutamine adjusted to contain 1.0 mM sodium pyruvate. Human melanoma (Hs294T) cells were cultured in Dulbecco medium (Gibco, Scotland, UK) supplemented with 2 mM L-glutamine. The normal human mammary gland cells (MCF-10A) were cultured in Ham’s F-12 medium containing 2 mM L-glutamine, 5% horse serum, epidermal growth factor EGF (100 μL/100 mL of medium), hydrocortisone (1 mL/ 100 mL of medium), insulin (100 μL/100 mL of medium) and cholera toxin (0.1 mL/100 mL of medium). All applied culture media except MCF-10A were supplemented with 10% of FBS (MV-4-11 cultured with FBS derived from Sigma-Aldrich, Chemie GmbH, Steinheim, Germany, the other cell lines FBS HyClone Thermo-Fisher Scientific, Warsaw, Poland) and streptomycin (100 µg/mL), penicillin (100 U/mL) (both from Polfa, Tarchomin, Poland). The tested cell lines were grown at 37 °C in humid atmosphere saturated with 5% CO2. In our studies were used two assays for determination the cytotoxic activity in vitro of triterpene derivatives. By dissolving 1 mg of each tested compound in 100 µL of DMSO, stock solutions at a 10 mg/mL were obtained. Next, the stock solutions were diluted in appropriate culture medium to reach the required concentrations of compounds ranging from 0.1 to 100 µg/mL. The MTT assay was used for the cytotoxicity screening against biphenotypic B myelomonocytic leukaemia (MV-4-11). The SRB assay was performed for adherent cells such as A549, Du-145, Hs294T, MCF-7 and MCF-10A. Both assays were carried as described by Wietrzyk et al.. The triterpenes in given concentration were examined in triplicates in each experiment, which was repeated 3 times. The results of anticancer activity in vitro were presented as an IC50 in µM. Cisplatin and betulin 1 were used as reference substances.

[1] = system: A549 (lung adenocarcinoma); assay: SRB antiproliferative assay on A549 cells; type: cell-based, human
Procedure: as §1

[2] = system: MCF-10A (normal mammary gland); assay: SRB antiproliferative assay on MCF-10A cells; type: cell-based, human; settings: Neg = negative in the concentration used
Procedure: as §1

[3] = system: MV-4-11 (biphenotypic B myelomonocytic leukaemia) cell line; assay: MTT antiproliferative assay on MV-4-11 cells; type: cell-based, human; settings: MTT assay, Neg = negative in the concentration used
Procedure: as §1

[4] = system: MCF-7 (breast adenocarcinoma); assay: SRB antiproliferative assay on MCF-7 cells; type: cell-based, human; settings: for IC50: SRB assay
Procedure: as §1

Hs294T (melanoma) = assay: SRB antiproliferative assay on Hs294T cells; type: cell-based, human; settings: for IC50: SRB assay
Procedure: as §1

[5] = system: A549, Du-145, Hs294T, MCF-7 and MCF-10A; assay: SRB antiproliferative assay, ranges over the cell line panel; type: cell-based; settings: Homo sapiens
Procedure: The applied human cell lines such as MV-4-11 (biphenotypic B myelomonocytic leukaemia), A549 (lung adenocarcinoma), Du-145 (prostate), Hs294T (melanoma), MCF-7 (breast adenocarcinoma) and MCF-10A (normal mammary gland) were obtained from the American Type Culture Collection (ATCC, Rockville, MD, USA). The all cell lines are maintained at the Cell Culture Collection of the Institute of Immunology and Experimental Therapy (Wrocław, Poland). The cells were plated in 96-well plates (Sarstedt, Newton, MA, USA) at a density of 1 × 10^4 cells per well in 100 µL of appropriate culture medium overnight. Biphenotypic B myelomonocytic leukaemia (MV-4-11) cells were cultured in RPMI 1640 medium (Gibco, Scotland, UK) with GlutaMAX (Thermo-Fisher Scientific, Warsaw, Poland) adjusted to contain 1.0 mM sodium pyruvate (Sigma-Aldrich, Chemie GmbH, Steinheim, Germany). Human lung adenocarcinoma (A549) cells were cultured in mixture RPMI 1640 and Opti-MEM medium (Gibco, Scotland, UK) supplemented with GlutaMAX (ThermoFisher Scientific, Warsaw, Poland) and 2mM L-glutamine adjusted to contain 1.0 mM sodium pyruvate. Human prostate (Du-145) and human breast adenocarcinoma (MCF-7) cells were cultured in Eagle medium (IIET, Wrocław, Poland), supplemented with 2 mM L-glutamine adjusted to contain 1.0 mM sodium pyruvate. […]

[6] = SI = IC50 for normal mammary gland (MCF-10A)/IC50 on tumour cell line

**Q.** With `C=C(C)[C@@H]1CC[C@]2(CO)CC[C@]3(C)[C@H](CC[C@@H]4[C@@]5(C)CC[C@H](O)C(C)(C)[C@@H]5CC[C@]43C)[C@@H]12` [Betulin 1, betulin] as the molecule, how does the IC50 (Du-145 (prostate); Homo sapiens, DU-145) read?
**A.** 44 ± 19.4 µM

**Q.** What about the IC50 ([1]; Homo sapiens, A549) of the same molecule?
**A.** 8.6 ± 0.7 µM

**Q.** And the IC50 ([2]; Homo sapiens, MCF-10A)?
**A.** 124 ± 41.6 µM

**Q.** What about the IC50 ([3]; Homo sapiens, MV4-11) of the same molecule?
**A.** 8.1 ± 2.9 µM

**Q.** And the IC50 ([4]; Homo sapiens, MCF7)?
**A.** 26.2 ± 6.5 µM

**Q.** What about the IC50 (Hs294T (melanoma); Homo sapiens, Hs 294T) of the same molecule?
**A.** 44.1 ± 7.2 µM

**Q.** Which IC50 (Du-145 (prostate)) does the source give for `N.N.[Cl][Pt][Cl]` [Cisplatin, reference compound] here?
**A.** 1.6 ± 0.3 µM

**Q.** What about the IC50 [1] of the same molecule?
**A.** 4.3 ± 1.3 µM

**Q.** And the IC50 [2]?
**A.** 14.7 ± 1 µM

**Q.** And the IC50 [3]?
**A.** 1 ± 0.27 µM

**Q.** And the IC50 [4]?
**A.** 7.7 ± 0.3 µM

**Q.** And the IC50 (Hs294T (melanoma))?
**A.** 6.3 ± 1.3 µM

**Q.** With `C=C(C)C1CC[C@]2(CO)CC[C@]3(C)C(CCC4[C@@]5(C)CC[C@H](OC(C)=O)C(C)(C)C5CC[C@]43C)C12` (stereo partly drawn) [Compound 2, 3-acetylbetulin, reference compound] as the molecule, how does the IC50 ([3]; Homo sapiens, MV4-11) read?
**A.** 27.2 ± 5.9 µM

**Q.** `C=C(C)C1CC[C@]2(C=O)CC[C@]3(C)C(CCC4[C@@]5(C)CC[C@H](OC(C)=O)C(C)(C)C5CC[C@]43C)C12` (stereo partly drawn) [Compound 3, 3-acetylbetulinic aldehyde, reference compound] was tested. Which IC50 ([3]; Homo sapiens, MV4-11) did it give?
**A.** 35 ± 12.8 µM

**Q.** How did the IC50 ([3]; Homo sapiens, MV4-11) turn out when `C=C(C)C1CC[C@]2(CO)CC[C@]3(C)C(CCC4[C@@]5(C)CC[C@H](OC(=O)CC)C(C)(C)C5CC[C@]43C)C12` (stereo partly drawn) [Compound 5, 3-Propanoylbetulin] was run?
**A.** 38.9 ± 11.8 µM

**Q.** How did the IC50 (Du-145 (prostate); Homo sapiens, DU-145) turn out when `C=CC(=O)O[C@H]1CC[C@@]2(C)C(CC[C@]3(C)C2CCC2C4C(C(=C)C)CC[C@]4(CO)CC[C@]23C)C1(C)C` (stereo partly drawn) [Compound 6, 3-(2-Propenoyl)betulin] was run?
**A.** 84.5 ± 39.4 µM

**Q.** What about the IC50 ([1]; Homo sapiens, A549) of the same molecule?
**A.** 23.3 ± 1.8 µM

**Q.** What about the IC50 ([2]; Homo sapiens, MCF-10A) of the same molecule?
**A.** 120 ± 15.3 µM

**Q.** And the IC50 ([3]; Homo sapiens, MV4-11)?
**A.** 4.2 ± 1.2 µM

**Q.** What about the IC50 ([4]; Homo sapiens, MCF7) of the same molecule?
**A.** 45.9 ± 3.8 µM

**Q.** For `C=C(C)C1CC[C@]2(CO)CC[C@]3(C)C(CCC4[C@@]5(C)CC[C@H](OC(=O)C#CC6CC6)C(C)(C)C5CC[C@]43C)C12` (stereo partly drawn) [Compound 7, 3-(3-Cyclopropyl-2-propynoyl)betulin], which IC50 ([3]; Homo sapiens, MV4-11) is on record?
**A.** 62.4 ± 9.9 µM

**Q.** `C=C(C)C1CC[C@]2(CO)CC[C@]3(C)C(CCC4[C@@]5(C)CC[C@H](OC(=O)C#Cc6ccccc6)C(C)(C)C5CC[C@]43C)C12` (stereo partly drawn) [Compound 8, 3-Phenylpropynoylbetulin] was tested. Which “MV-4-11 IC50” value [3] did it give?
**A.** Neg

**Q.** Which results are given for `C=C(C)C1CC[C@]2(CO)CC[C@]3(C)C(CCC4[C@@]5(C)CC[C@H](OC(=O)C#CC)C(C)(C)C5CC[C@]43C)C12` (stereo partly drawn) [Compound 9, 3-(2-Butynoyl)betulin]?
**A.** IC50 (Du-145 (prostate); Homo sapiens, DU-145): 7.3 ± 0.8 µM; Selectivity Index (SI) towards Du-145 (Du-145 (prostate); [6]): 9.82; IC50 ([1]; Homo sapiens, A549): 83.5 ± 25.3 µM; IC50 ([2]; Homo sapiens, MCF-10A): 71.7 ± 8.6 µM; IC50 ([3]; Homo sapiens, MV4-11): 4.5 ± 1.7 µM; IC50 ([4]; Homo sapiens, MCF7): 10.4 ± 5.7 µM; Selectivity Index (SI) towards MCF-7 [4, 6]: 6.89; IC50 (Hs294T (melanoma); Homo sapiens, Hs 294T): 10.6 ± 4.3 µM; Selectivity Index (SI) towards Hs294T (Hs294T (melanoma); [6]): 6.76; IC50 ([5]; range over A549, Du-145, Hs294T, MCF-7, MCF-10A, read-out: IC50 against the tested cell lines): 7.3 to 83.5 µM; IC50 ([5]; range over the three cell lines, read-out: IC50 towards Du-145, MCF-7 and Hs294T cells): 7.3 to 10.6 µM

**Q.** With `C=C(C)C1CC[C@]2(CO)CC[C@]3(C)C(CCC4[C@@]5(C)CC[C@H](OC(=O)OCC)C(C)(C)C5CC[C@]43C)C12` (stereo partly drawn) [Compound 10, 3-Ethoxycarbonylbetulin] as the molecule, how does the IC50 ([3]; Homo sapiens, MV4-11) read?
**A.** 20 ± 1.5 µM

**Q.** Which IC50 ([3]; Homo sapiens, MV4-11) does the source give for `C=C(C)C1CC[C@]2(CO)CC[C@]3(C)C(CCC4[C@@]5(C)CC[C@H](OC(=O)OCCC)C(C)(C)C5CC[C@]43C)C12` (stereo partly drawn) [Compound 11, 3-Propoxycarbonylbetulin] here?
**A.** 30.8 ± 1.5 µM

**Q.** `C=CCOC(=O)O[C@H]1CC[C@@]2(C)C(CC[C@]3(C)C2CCC2C4C(C(=C)C)CC[C@]4(CO)CC[C@]23C)C1(C)C` (stereo partly drawn) [Compound 12, 3-Allyloxycarbonylbetulin] was tested. Which IC50 ([3]; Homo sapiens, MV4-11) did it give?
**A.** 20.1 ± 4.7 µM
